In US12098386B2, “Use of germ cells for preparing a micro hair follicle” (L'OREAL, priority 2016, dated 2024):

System: germ cells
Assay: Culture-amplification of germ cells on 3T3 feeder layer in Green 7F medium with or without ROCK inhibitor
Format: cell-based
From the text: The germ cell region, called the bulge (FIG. 1), is extracted from the connective tissue sheath (FIG. 2) and then placed in a petri dish containing 3T3i cells (FIG. 3).
The hair follicles are extracted from a surgical residue of scalp. Said residue is first cut into 5 mm^2 portions and then sectioned using a scalpel between the dermis and the hypodermis.
The follicles are extracted using ophthalmic surgery forceps and are then sectioned just above the papilla with a scalpel. The bulb is then recovered. At this stage, the bulb comprises two compartments: the dermal compartment (dermal papilla and connective tissue sheath) and the matrix cells which form a cell mass.
The epithelial part is separated from the dermal part using perfusion needles. Only the epithelial part is cultured.
The MEM medium+10% FCS+7F (called Green 7F medium) has the following composition:
After microdissection, the hair follicles in the telogen phase are deposited in Petri dishes 60 mm in diameter, seeded beforehand with 1 million 3T3 cells, and covered with the complete Green 7F culture medium; a culture of germ cells at confluence is obtained.
The telogen hair with the non-dissociated germ cell clump are isolated and deposited on a 3T3 feeder layer (FIG. 3). After 3 d of culture, the cells begin to proliferate in the form of a colony around the germ clump (FIG. 4). The cells reach subconfluence in 7 days (FIG. 5). […]

## C[C@@H](N)[C@H]1CC[C@H](C(=O)Nc2ccncc2)CC1 [Y27632]
Germ cells cultured in 7F medium containing the rock inhibitor (FIG. 6)
  Differentiation of germ cells into marker-positive keratinocytes (K15, CD29, CD200): keratinocytes that are positive for the K15, CD29 and CD200 markers
Green 7F medium, Y27632 at 10 μM, in the same medium without the rock inhibitor the cells do not proliferate (FIG. 7a/7b)
  Proliferation of the germ cells (reaching confluence): very rapidly reaching confluence
